Columns and labels:
[1] = tested on: cGAS/STING pathway in THP1 cells; assay: THP1 cell-based cGAS/STING pathway activity assay (IRF-3-linked luciferase reporter); details: Homo sapiens, THP-1
Text: A cellular assay can be used to assess the compounds of the invention for their ability to inhibit the cGAS/STING pathway. Cells that express a luciferase-based reporter that is linked to IRF-3 activation are used to determine response as a function of compound concentration. Such an assay is described in Vincent et al., Nature Communications 2017, 8(1):750, doi: 10.1038/s41467-017-00833-9.
A cellular assay can be used to assess the compounds of the invention for their ability to inhibit the cGAS/STING pathway. Cells that express a luciferase-based reporter that is linked to IRF-3 activation are used to determine response as a function of compound concentration. Such an assay is described in Vincent et al., Nature Communications 2017, 8(1):750, doi: 10.1038/s41467-017-00833-9. Compounds of the invention were assessed using similar assay methods in a THP1 cell assay to generate IC50 values as provided in the following Table 16. In this table, activity level “A” indicates an IC50 value less than 20 μM, “B” indicates an IC50 value between 20 and 100 μM, and “C” indicates an IC50 value above the upper limit of the assay (100 μM), or where an IC50 value could not be generated from the data.

[2] = biological target: Human cGAS amino acids 155-522 (Homo sapiens (Human), UniProt Q8N884); assay: cGAS biochemical activity assay (ATP remaining, Kinase-Glo Max luminescence); details: human cGAS 155-522, ATP remaining (Kinase-Glo Max); read-out: cGAS IC50
Chain of Human cGAS amino acids 155-522 (Q8N884 157-522): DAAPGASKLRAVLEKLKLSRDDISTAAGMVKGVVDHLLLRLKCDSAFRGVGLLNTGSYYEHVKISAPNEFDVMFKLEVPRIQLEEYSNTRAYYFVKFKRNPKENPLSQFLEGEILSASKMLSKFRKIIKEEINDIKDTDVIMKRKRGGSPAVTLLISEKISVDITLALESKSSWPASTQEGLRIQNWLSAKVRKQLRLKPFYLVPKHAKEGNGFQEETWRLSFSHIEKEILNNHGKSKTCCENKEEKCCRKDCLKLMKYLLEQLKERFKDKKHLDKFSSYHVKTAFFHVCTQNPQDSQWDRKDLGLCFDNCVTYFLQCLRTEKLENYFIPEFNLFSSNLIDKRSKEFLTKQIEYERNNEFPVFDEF

IC50 [1]	IC50 [2]	Compound
> 100 µM	< 20 µM	COc1cccc2oc(-c3c(COC4COC4)[nH]c4c(-c5ccccc5)c(C#N)nn4c3=O)nc12 [Compound C1259, 6-(4-methoxybenzo[d]oxazol-2-yl)-5-((oxetan-3-yloxy)methyl)-7-oxo-3-phenyl-4,7-dihydropyrazolo[1,5-a]pyrimidine-2-carbonitrile]
> 100 µM	< 20 µM	COc1ccnc2oc(-c3c(C)[nH]c4c(-c5ccccc5)c(C(F)(F)F)nn4c3=O)nc12 [Compound C1058, 6-(7-methoxyoxazolo[5,4-b]pyridin-2-yl)-5-methyl-3-phenyl-2-(trifluoromethyl)pyrazolo[1,5-a]pyrimidin-7(4H)-one]
20 to 100 µM	< 20 µM	COc1ccc(S(C)(=O)=O)c2oc(-c3c(C)[nH]c4c(-c5ccccc5)c(C(F)(F)F)nn4c3=O)nc12 [Compound C1125, 6-(4-methoxy-7-(methylsulfonyl)benzo[d]oxazol-2-yl)-5-methyl-3-phenyl-2-(trifluoromethyl)pyrazolo[1,5-a]pyrimidin-7(4H)-one]
> 100 µM	< 20 µM	COc1cc(CO)cc2oc(-c3c(C)[nH]c4c(-c5ccccc5)c(C#N)nn4c3=O)nc12 [Compound C1203, 6-(6-(hydroxymethyl)-4-methoxybenzo[d]oxazol-2-yl)-5-methyl-7-oxo-3-phenyl-4,7-dihydropyrazolo[1,5-a]pyrimidine-2-carbonitrile]

The next lines start with the compound.

Compound	IC50 [1]	IC50 [2]
Cc1[nH]c2c(-c3ccccc3)c(C(F)(F)F)nn2c(=O)c1-c1nc(CO)c(C(C)C)o1 [Compound C1143, 6-(4-(hydroxymethyl)-5-isopropyloxazol-2-yl)-5-methyl-3-phenyl-2-(trifluoromethyl)pyrazolo[1,5-a]pyrimidin-7(4H)-one]	> 100 µM	< 20 µM
Cc1[nH]c2c(-c3ccccc3)c(C(F)(F)F)nn2c(=O)c1-c1nc2c(S(C)(=O)=O)cccc2o1 [Compound C1054, 5-methyl-6-(4-(methylsulfonyl)benzo[d]oxazol-2-yl)-3-phenyl-2-(trifluoromethyl)pyrazolo[1,5-a]pyrimidin-7(4H)-one]	> 100 µM	20 to 250 µM
COc1cccc2oc(-c3c(COC4CCNC4=O)[nH]c4c(-c5ccccc5)c(C(F)(F)F)nn4c3=O)nc12 (stereo not shown) [Compound C1159, 6-(4-methoxybenzo[d]oxazol-2-yl)-5-(((2-oxopyrrolidin-3-yl)oxy)methyl)-3-phenyl-2-(trifluoromethyl)pyrazolo[1,5-a]pyrimidin-7(4H)-one]	> 100 µM	< 20 µM
Cc1[nH]c2c(-c3ccccc3)c(C(F)(F)F)nn2c(=O)c1C(=O)Nc1cccc2c1OC(F)(F)O2 [Compound A1062, N-(2,2-difluorobenzo[d][1,3]dioxol-4-yl)-5-methyl-7-oxo-3-phenyl-2-(trifluoromethyl)-4,7-dihydropyrazolo[1,5-a]pyrimidine-6-carboxamide]	< 20 µM	< 20 µM
COc1cccc(NC(=O)Cc2c(C)[nH]c3c(-c4ccccc4)c(C(F)(F)F)nn3c2=O)c1 [Compound B1011, N-(3-methoxyphenyl)-2-(5-methyl-7-oxo-3-phenyl-2-(trifluoromethyl)-4,7-dihydropyrazolo[1,5-a]pyrimidin-6-yl)acetamide]	20 to 100 µM	20 to 250 µM
Cc1[nH]c2c(-c3ccccc3)c(C(F)(F)F)nn2c(=O)c1-c1nc2c([S+](C)[O-])cccc2o1 (stereo not shown) [Compound C1097, 5-methyl-6-(4-(methylsulfinyl)benzo[d]oxazol-2-yl)-3-phenyl-2-(trifluoromethyl)pyrazolo[1,5-a]pyrimidin-7(4H)-one]	> 100 µM	< 20 µM
Cc1[nH]c2c(-c3ccccc3)c(C(F)(F)F)nn2c(=O)c1C(=O)Nc1ccc(S(C)(=O)=O)nc1 [Compound A1113, 5-methyl-N-(6-(methylsulfonyl)pyridin-3-yl)-7-oxo-3-phenyl-2-(trifluoromethyl)-4,7-dihydropyrazolo[1,5-a]pyrimidine-6-carboxamide]	> 100 µM	20 to 250 µM

— patent publication US10738056B2 (Aduro BioTech, Inc., priority 2017, dated 2020)
